# pEC50, pKi: −log10 of the molar value.
# Assays:
# [1] = target: T1, Melanocyte-stimulating hormone receptor (Homo sapiens, UniProt Q01726); test: Displacement of europium labeled NDP-alpha-MSH from human MC1R expressed in HEK293 cells; assay type: cell-based
# [2] = target: T2, Melanocortin receptor 4 (Homo sapiens, UniProt P32245); test: Displacement of europium labeled NDP-alpha-MSH from human MC4R expressed in HEK293 cells; assay type: cell-based
# [3] = target: T3, Melanocortin receptor 3 (Homo sapiens, UniProt P41968); test: Agonist activity at human MC3R transfected in HEK293 cells; assay type: functional, cell-based
# [4] = target: T2, Melanocortin receptor 4; test: Agonist activity at human MC4R transfected in HEK293 cells; assay type: functional, cell-based
# [5] = target: T1, Melanocyte-stimulating hormone receptor; test: Agonist activity at human MC1R transfected in HEK293 cells; assay type: functional, cell-based
# [6] = target: T3, Melanocortin receptor 3; test: Displacement of europium labeled NDP-alpha-MSH from human MC3R expressed in HEK293 cells; assay type: cell-based
# [7] = Absorptive permeability across Caco-2 cell membrane; assay type: ADME, cell-based; settings: human, read-out: permeability (converted)
# [8] = Exsorptive permeability across Caco-2 cell membrane; assay type: ADME, cell-based; settings: human, read-out: permeability (converted)
# T1 sequence (Q01726 whole entry): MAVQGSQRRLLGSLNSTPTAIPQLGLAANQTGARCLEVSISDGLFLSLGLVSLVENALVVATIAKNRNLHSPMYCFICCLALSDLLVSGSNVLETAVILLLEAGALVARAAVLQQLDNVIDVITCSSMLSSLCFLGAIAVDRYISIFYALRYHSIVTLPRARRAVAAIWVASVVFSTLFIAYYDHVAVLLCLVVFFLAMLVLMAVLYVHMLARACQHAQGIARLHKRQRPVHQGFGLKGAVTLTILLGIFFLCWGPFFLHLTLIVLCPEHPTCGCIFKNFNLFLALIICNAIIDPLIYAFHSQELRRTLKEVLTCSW
# T3 sequence (P41968 whole entry): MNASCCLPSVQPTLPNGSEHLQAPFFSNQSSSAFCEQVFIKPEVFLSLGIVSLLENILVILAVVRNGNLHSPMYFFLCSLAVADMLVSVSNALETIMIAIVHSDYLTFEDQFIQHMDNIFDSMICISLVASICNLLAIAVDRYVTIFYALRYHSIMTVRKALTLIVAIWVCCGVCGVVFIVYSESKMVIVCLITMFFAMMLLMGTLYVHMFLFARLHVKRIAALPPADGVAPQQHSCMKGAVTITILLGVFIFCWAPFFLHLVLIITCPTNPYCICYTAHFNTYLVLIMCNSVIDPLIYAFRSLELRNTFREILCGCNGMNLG
# T2 sequence (P32245 whole entry): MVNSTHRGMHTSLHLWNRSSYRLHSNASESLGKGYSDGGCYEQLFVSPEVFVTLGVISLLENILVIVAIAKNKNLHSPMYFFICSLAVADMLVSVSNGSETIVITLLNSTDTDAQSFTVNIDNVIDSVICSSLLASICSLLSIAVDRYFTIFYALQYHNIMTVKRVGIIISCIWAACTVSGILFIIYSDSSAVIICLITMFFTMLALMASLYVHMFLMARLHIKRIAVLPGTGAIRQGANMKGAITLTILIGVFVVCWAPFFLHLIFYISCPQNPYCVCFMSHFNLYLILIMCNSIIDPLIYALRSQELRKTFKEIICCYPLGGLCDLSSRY
pKi [1],pKi [2],pEC50 [3],pEC50 [4],pEC50 [5],pKi [6],Papp A→B [7],Papp [8],Structure (SMILES)
7.89,5.80,6.47,6.82,8.52,6.08,1 ×10⁻⁶ cm/s,0.5 ×10⁻⁶ cm/s,CC(=O)N[C@@H](Cc1cnc[nH]1)C(=O)N[C@H](Cc1ccccc1)C(=O)N1C[C@H](OCc2ccc3ccccc3c2)C[C@@H]1C(=O)NCCN=C(N)N
6.33,7.05,5.86,6.50,6.63,6.54,7.5 ×10⁻⁶ cm/s,6.17 ×10⁻⁶ cm/s,CC(=O)N[C@H](Cc1ccccc1)C(=O)N1C[C@H](OCc2ccc3ccccc3c2)C[C@@H]1CCCN=C(N)N
